Measured values taken from paper PMC5575474, “Structure‐Enabled Discovery of a Stapled Peptide Inhibitor to Target the Oncogenic Transcriptional Repressor TLE1” (Chemistry (Weinheim an Der Bergstrasse, Germany), 2017).
Where two headings read alike, the source gives them in different places. Values belong to the molecule of their own block, whether it stands above or below them. No end group written: not given here.

How the values were obtained:
[1] = target: T1, human TLE1 443-770 (TLE1 WD40 domain) (Homo sapiens, UniProt Q04724); assay: Thermal shift assay (TSA, ΔTm); format: binding; settings: 6 μM human TLE1 443-770, 25 mM Tris pH7.5, 125 mM NaCl, 1 mM DTT, 0.0002% Tween20, 3x SYPRO Orange, 10 °C to 95 °C, 0.5 °/min, mean of triplicate
T1 construct: the TLE1 WD40 domain (TLE1 residues 443–770); His6 (N, cleaved yes); made in house; host or cells: Sf9 insect cells (baculovirus, pFastBacHTb)
T1 sequence (Q04724 443-770): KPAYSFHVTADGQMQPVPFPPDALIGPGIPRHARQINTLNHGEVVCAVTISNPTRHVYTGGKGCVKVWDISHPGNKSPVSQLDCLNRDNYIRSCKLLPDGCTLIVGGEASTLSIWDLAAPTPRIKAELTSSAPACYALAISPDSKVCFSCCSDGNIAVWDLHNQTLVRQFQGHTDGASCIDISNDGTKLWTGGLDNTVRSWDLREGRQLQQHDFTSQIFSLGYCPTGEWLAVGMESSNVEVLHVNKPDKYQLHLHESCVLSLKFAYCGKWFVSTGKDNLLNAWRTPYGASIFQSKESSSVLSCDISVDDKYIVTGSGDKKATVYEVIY
Experimental: (§1) We next investigated the binding of this macrocycle, as well as acyclic MWRPW and FWRPW peptides, to TLE1. We used two orthogonal binding assays, the thermal shift assay10 and isothermal titration calorimetry (ITC),11 to test binding of 18 and the linear peptides to the TLE1 WD40 domain (TLE1 residues 443–770).
Figure 2 ΔT m plot of peptide–hTLE1 443–770 interactions in thermal shift experiments. All measurements were carried out in triplicate and the points are reported as mean+standard deviation (SD). […]
(§2) Cloning, Expression and Purification of humanTLE1 443- 770.
(§3) The construct encoding the sequence for human TLE1 443- 770 was generated ac c or ding Laurence Pearl’s laboratory procedure. Brief ly, the C-terminal region of human TLE1 (GenBank accession number M99435) encoding amino acids 443– 770 was PCR amplif ied and cloned into pFastBacHTb (GIBCO) in-frame with the N-terminal His6 tag sequence.
(§4) Starting from this construct we generated recombinant baculovirus using the Bac-to-Bac® Baculovirus Expression System (Thermo Fisher Scientif ic). For protein production, Sf9 insect cells were grown in sf -900 II SFM media (Thermo Fisher Scientific) to a cell density of around 2 × 10^6 cells per milliliter and inf ected with 20 μL of virus per 107cells. Inf ected cell cultures were harvested 3 days post-inf ection.
(§5) Cell pellets were resuspended in 6 volumes of lysis buffer (50 mM Tris pH 7.5, 500 mM NaCl, 1 mM MgCl) containing 1× complete EDTA-free protease inhibitors and 25 U/mL benzonase nuclease. The resuspended cells were lysed by sonication. Following […]
(§6) centrifugation, the supernatant was purified over 2x HiTrap talon crude columns (Cobalt - IMAC, GE). Columns were washed with 10m M Imidazole and then the protein was eluted in […]
(§7) The Talon eluate was incubated overnight at 4 °C with TEV protease to cleave the 6xHis tag and then re- loaded on talon column: the unbound wash contains the cleaved hTLE1 443- […]
(§8) The protein was subsequently purif ied over a Superdex 75 16/60 column that was equilibrated in 50 mM Hepes pH 7.5 + 250 mM naCl + 1 mM TCEP.
(§9) Selected f ractions were pooled, concentrated to 8 mg/mL and stored at - 80 °C. The protein was stable in these conditions f or up to three months.
(§10) Protein concentration was measured using an ND-1000 UV spectrophotometer (Nanodrop Technologies Inc., DE., USA). […]
(§11) 1-2 days at 20 ◦C. Some crystals were transf erred to hanging drop (vapour diffusion) plates with the wells containing precipitant solution (PEG 8000 (22%), 100mM Na cacodylate, 100 mM Ca(OAc)2) and the drops containing the same precipitant solution supplemented with 1.0 or 2.5 mM peptide and a resultant final DMSO concentration of 1.0% or 2.5%, respectively. These crystals were soaked for around 5 h at 20 °C. Apo or peptide- s oak ed crystals were harvested, briefly transferred to cryprotectant (either paratone- N or a buffer containing ethylene glycol (40%), PEG 8000 (50%), 100 mM sodium cacodylate, 100 m M Ca(OAc)2) and f lash frozen in liquid nitrogen.
X-Ray data we r e collected at the Diamond Light Source, Oxford, UK on beamline I04.
Crystals belonged to the space group P2 1 and diffracted to between 1.6 and 2.9 Å. Dat a we r e integrated and merged using MOSFLM[4a,b] and AI MLESS.[4c] The structures were solved by molecular replacement using PHASER, [5] with either 2CE9 or our refined apo structure as the molecular replacement model with ligands and water removed. T he structures were manually rebuilt in COOT [6] and refined with BUSTER[7] in iterative cycles.
Ligand restraints f or the constrained peptide were generated with Grade[8] and Mogul.[9] T he quality of the structures was assessed with MOLPROBITY.[10]
Linear, unmodified peptides FW RPW and MWRPW were purchased from Cambridge Peptides as lyophilized powder. The peptides were then reconstituted in 1:1 mixture of DMSO and H2O as 10 mM stocks and stored at -80 °C. […]

[2] = target: T1, human TLE1 443-770 (TLE1 WD40 domain); assay: Isothermal titration calorimetry (ITC), peptide–TLE1 binding; settings: for Kd / affinity relative to unconstrained (acyclic) peptide: cyclic vs acyclic FWRPW
Source text: as §1
This was initially more pronounced for FWRPW and 18, but also recognisable for the MWRPW peptide (see Figure S1 in the Supporting Information). We repeated the MWRPW titration at slightly higher protein and peptide concentrations to achieve a higher enthalpy signal, and therefore, better resolution of the titration event. Under these conditions, we also observed a clear biphasic curve (Figure 3). The biphasic curves are indicative of two binding events and we calculated the thermodynamic data for both (Table 2).
Figure 3 Top: ITC measurements of peptide–TLE1 binding interactions. Data fitting to a two‐site independent binding model are shown; integrated heats are shown in the inset. Bottom: Histograms showing ΔG, ΔH, and −TΔS. The thermodynamic values are also presented in Table 1. a) MWRPW–TLE1 binding, n=1. Experiment performed with TLE1 (40 μM) and MWRPW peptide (420 μM). b) FWRPW–TLE1 binding, n=2. Experiment performed with TLE1 (30 μM), FWRPW peptide (240 μM), and then repeated with TLE1 (24 μM), FWRPW peptide (180 μM). Histograms represent averaged values; error bars denote SD. c) 18–TLE1 binding, n=2. Experiment performed with TLE1 (30 μM), 18 (200 μM) and then repeated with TLE1 (30 μM), 18 (180 μM). Histograms represent averaged values; error bars denote SD. […]
as §2, §3, §4, §5, §6, §7, §8, §9, §10
as §11, with “containing ethylene glycol (40%), PEG 8000 (50%), 100 mM sodium cacodylate, 100 m M Ca(OAc)2) and f lash frozen in liquid nitrogen.” left out

[3] = target: T1, human TLE1 443-770 (TLE1 WD40 domain); assay: as above; settings: one-site independent binding model; TLE1 30 μM, peptide 350 μM; 25 °C, 50 mM Hepes pH7.5, 250 mM NaCl; mean ± SD, n = 2 (Table S1)
[4] = target: TLE1 WDR domain; settings: cited from earlier work
Source text: As discussed in more detail below, the bioactive conformation of this peptide is characterised by a compactly folded core formed by the central three amino acids. This compact core engages in extensive interactions with the WDR1 domain and positions key amino acid side chains such that they can form add ...

[5] = first binding event, two-site independent binding model, 25 °C, pH7.5, MWRPW n=1, FWRPW and 18 n=2, mean ± SD
[6] = second binding event, two-site independent binding model, 25 °C, pH7.5, MWRPW n=1, FWRPW and 18 n=2, mean ± SD

ΔTm ([1]; peptide 100 μM): 8.4 °C
ΔTm ([1]; peptide 200 μM): 7.5 °C
Kd / affinity relative to unconstrained (acyclic) peptide ([2]; listed as cycFWRPW): approximately five‐fold higher
Kd ([2]; second binding event, two-site independent binding model, 25 °C, 50 mM Hepes pH7.5, 250 mM NaCl, 1 mM TCEP, 0.05% Tween 20, MWRPW n=1 (TLE1 40 μM, peptide 420 μM), FWRPW n=2 (TLE1 30/24 μM, peptide 240/180 μM), 18 n=2 (TLE1 30 μM, peptide 200/180 μM), read-out: Kd2): 0.522 ± 0.0396 µM
Molecule: N=C(N)NCCC[C@@H]1NC(=O)[C@@H](NC(=O)[C@@H](N)Cc2ccccc2)Cc2cn(c3ccccc23)CCCC[C@@]2(C(=O)N[C@@H](Cc3c[nH]c4ccccc34)C(=O)O)CCCN2C1=O [compound 18]
Kd / affinity relative to unconstrained (acyclic) peptide [2]: approximately six‐fold lower affinity than that of the acyclic peptide

Kd [3]: 0.704 ± 0.014 µM
ΔTm ([1]; peptide 100 μM): 6.3 °C
ΔTm ([1]; peptide 200 μM): 6.9 °C
Molecule: MWRPW [MWRPW, reference compound]

Molecule: SMWRPW [acyclic design template (pdb code 2CE9)]
Kd [4]: 1 µM

ΔTm ([1]; peptide 100 μM): 9.4 °C
ΔTm ([1]; peptide 200 μM): 10.1 °C
N1 ([2]; first binding event, two-site independent binding model, 25 °C, 50 mM Hepes pH7.5, 250 mM NaCl, 1 mM TCEP, 0.05% Tween 20, MWRPW n=1 (TLE1 40 μM, peptide 420 μM), FWRPW n=2 (TLE1 30/24 μM, peptide 240/180 μM), 18 n=2 (TLE1 30 μM, peptide 200/180 μM)): 0.18±0.002
ΔH1 [2, 5]: -85.8 ± 15.5 kJ/mol
−TΔS1 [2, 5]: 38.5 ± 15.9 kJ/mol
fold more potent binding than MWRPW ([2]; second binding event (Kd2)): ~10 fold
N2 ([2]; second binding event, two-site independent binding model, 25 °C, 50 mM Hepes pH7.5, 250 mM NaCl, 1 mM TCEP, 0.05% Tween 20, MWRPW n=1, FWRPW and 18 n=2): 0.7±0.004
ΔH2 [2, 6]: -61.1 ± 0 kJ/mol
−TΔS2 [2, 6]: 19.2 ± 0.84 kJ/mol
Molecule: FWRPW [linear, unmodified peptide purchased from Cambridge Peptides; acyclic counterpart of 18]
